Assay results: BindingDB's records for patent US20250057848 (Neurim Pharmaceuticals (1991), 2025)

Target: Neurotensin receptor type 1 (Homo sapiens, UniProt P30989)
Assay: Binding of Neurotensin to the NTSR1 Receptor
Excerpt: However, the potency of GAL 475 at these receptors was lower than 1 micromolar and therefore not considered to be pharmacologically interesting. […] GAL475 was subsequently tested for PAM activity at the human NTS1 (FAST-0330I) and NTS2 (FAST-0331I) receptors, at 100-50,000 nanomolar concentrations.

Neurotensin receptor type 1, sequence (P30989 whole entry): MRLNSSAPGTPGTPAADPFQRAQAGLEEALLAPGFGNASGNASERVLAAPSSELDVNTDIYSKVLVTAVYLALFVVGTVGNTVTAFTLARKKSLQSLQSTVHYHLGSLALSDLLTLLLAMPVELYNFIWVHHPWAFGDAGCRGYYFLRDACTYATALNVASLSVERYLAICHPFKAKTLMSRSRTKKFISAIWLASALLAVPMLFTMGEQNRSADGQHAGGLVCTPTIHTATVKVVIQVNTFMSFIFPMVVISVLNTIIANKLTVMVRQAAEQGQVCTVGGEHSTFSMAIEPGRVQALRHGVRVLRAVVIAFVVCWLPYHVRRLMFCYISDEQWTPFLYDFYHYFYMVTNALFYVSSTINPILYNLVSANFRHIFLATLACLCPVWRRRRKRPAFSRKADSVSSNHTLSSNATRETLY

EC50: 355 nM
Compound: CCCNc1nc(NC)nc2c1NC(NC)N=C2NCC(C)(C)O (stereo unspecified) [US20250057848, Compound GAL-475]
